One assay addresses T1, D2R (D2 dopamine receptor; HA-hDRD2-SmBiT) (Homo sapiens, UniProt P14416). The experiment in a line: competition with [3H]-raclopride, membranes.
Details: not given
T1 sequence (P14416 whole entry): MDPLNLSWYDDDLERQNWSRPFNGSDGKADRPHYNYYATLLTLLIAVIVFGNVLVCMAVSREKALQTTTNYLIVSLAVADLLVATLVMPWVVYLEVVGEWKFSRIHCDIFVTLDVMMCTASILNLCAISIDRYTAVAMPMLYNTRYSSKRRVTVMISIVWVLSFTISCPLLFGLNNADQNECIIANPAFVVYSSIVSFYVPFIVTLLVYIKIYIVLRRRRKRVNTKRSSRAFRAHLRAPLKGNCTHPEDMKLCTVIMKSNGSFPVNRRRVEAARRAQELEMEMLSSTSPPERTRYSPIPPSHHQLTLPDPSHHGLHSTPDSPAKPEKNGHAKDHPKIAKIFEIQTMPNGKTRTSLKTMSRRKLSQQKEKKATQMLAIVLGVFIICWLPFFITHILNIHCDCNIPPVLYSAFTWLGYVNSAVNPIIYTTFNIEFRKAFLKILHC
`NCC(O)c1cccc(O)c1` (stereo not drawn) [norphenylephrine]: the Ki was 17 µM. `CNC[C@H](O)c1ccc(O)c(O)c1` [adrenaline] had a Ki of 7.08 µM.

`CNCCc1ccccc1` [n-methyl-phenetylamine] had a Ki of 17 µM.

`CNCCc1ccc(O)c(O)c1` [methyldopamine]: the Ki is 0.0603 µM. `CNC[C@H](O)c1cccc(O)c1` [phenhyleprine] showed a Ki of 15.1 µM. On the same count and under the same terms, in the case of `CNCC(O)c1ccc(O)cc1` (stereo not drawn) [synephrine] it was 87.1 µM.

As to `NC[C@H](O)c1ccc(O)cc1` [octopamine], the Ki stood at 347 ± 60.1 µM. `NCC(O)c1ccccc1` (stereo not drawn) [hydroxyphenethylamine] gave a Ki of 195 µM.

The same assay, now with this note: pH 7.4, RT, 10 mM MgCl2, orthosteric.
Regarding `NCCc1ccccc1` [phenetylamine], the Ki was 4.73 ± 0.52 pKi.

A further assay addresses T1, D2R (D2 dopamine receptor; HA-hDRD2-SmBiT). The experiment in a line: competition with [3H]-raclopride, membranes.
Details: not given
This is another data set of the same source.
In the case of `NCCc1cccc(O)c1` [m-tyramine], the Ki was 1.86 µM. Same read-out and setting: in the case of `NCCc1ccc(O)cc1` [p-tyramine] it was 77.6 µM; in that of `NC[C@H](O)c1ccc(O)c(O)c1` [noradrenaline], 9.55 µM.

Source of the values: publication doi:10.1101/2025.03.30.646192v1 (biorxiv, 2025).
